In US8207127B2, “Compounds for enzyme inhibition” (Onyx Technologies, Inc., priority 2004, dated 2012) one finds IC50 data, which are given here for four compounds.

The target of assay [1] is 20S proteasome chymotrypsin-like activity (CT-L) (Homo sapiens, UniProt P20618+P28074). Nature of the assay: 20S proteasome chymotrypsin-like (CT-L) activity inhibition. The assay is classed as biochemical. As to conditions: chymotrypsin-like activity of 20S proteasome. The method, then: The enzyme inhibitor analogs and prodrugs disclosed herein are useful in part because they inhibit the action of the 20S proteasome. […] That is, the instant compounds show selectivities for the 20S proteasome over other proteases such as cathepsins, calpains, papain, chymotrypsin, trypsin, tripeptidyl pepsidase II. The selectivities of the enzyme inhibitors for 20S proteasome are such that at concentrations below about 50 μM, the enzyme inhibitors show inhibition of the catalytic activity of the 20S proteasome, while not showing inhibition of the catalytic activity of other proteases such as cathepsins, calpains, papain, chymotrypsin, trypsin, tripeptidyl pepsidase II. In preferred embodiments, the enzyme inhibitors show inhibition of the catalytic activity of the 20S proteasome at concentrations below about 10 μM, while not showing inhibition of the catalytic activity of other proteases at these concentrations. In even more preferred embodiments, the enzyme inhibitors show inhibition of the catalytic activity of the 20S proteasome at concentrations below about 1 μM, while not showing inhibition of the catalytic activity of other proteases at these concentrations. Enzyme kinetic assays are disclosed in U.S. application Ser. No. 09/569,748, Example 2 and Stein et al., Biochem. (1996), 35, 3899-3908.
The chymotrypsin-like activity of 20S proteasome is characterized by cleavage of peptides in the immediate vicinity of large hydrophobic residues. In particular, the chymotrypsin-like activity of Ntn hydrolases can be determined by cleavage of a standard substrate. Examples of such substrates are known in the art. For example, a leucylleucylvalinyltyrosine derivative can be used. Enzyme kinetic assays are disclosed in U.S. application Ser. No. 09/569,748, Example 2 and Stein et al., Biochem. (1996), 35, 3899-3908.

The target of assay [2] is T1, proteasome chymotrypsin-like activity (CT-L) (Homo sapiens, UniProt P28074).
T1 construct: endogenous in cells
T1 sequence (P28074 60-263): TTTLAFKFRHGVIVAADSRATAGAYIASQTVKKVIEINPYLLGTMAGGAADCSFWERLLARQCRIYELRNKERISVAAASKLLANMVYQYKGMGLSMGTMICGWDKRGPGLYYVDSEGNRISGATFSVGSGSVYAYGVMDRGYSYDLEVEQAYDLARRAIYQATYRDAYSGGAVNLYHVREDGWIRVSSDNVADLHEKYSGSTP
In words: Cell-based CT-L proteasome activity inhibition.

For `CC(C)C[C@H](NC(=O)[C@H](CCc1ccccc1)NC(=O)CO)C(=O)N[C@@H](Cc1ccccc1)C(=O)N[C@@H](CC(C)C)C(=O)[C@@]1(C)CO1` [Compound 1], the IC50 in assay [1] was less than 50 nM; in assay [2] it was less than 100 nM.

Take `CC(C)C[C@H](NC(=O)[C@H](CCc1ccccc1)NC(=O)CN1CCCCC1)C(=O)N[C@@H](Cc1ccccc1)C(=O)N[C@@H](CC(C)C)C(=O)[C@@]1(C)CO1` [Compound 4]: the IC50 in assay [1] and in assay [2] was less than 100 nM each time.

Take `CC(C)C[C@H](NC(=O)[C@H](CCc1ccccc1)NC(=O)CCCN(C)C)C(=O)N[C@@H](Cc1ccccc1)C(=O)N[C@@H](CC(C)C)C(=O)[C@@]1(C)CO1` [Compound 7]: the IC50 in assay [1] was less than 50 nM; in assay [2], less than 150 nM.

`Cc1nn(C)c(C)c1S(=O)(=O)N[C@@H](CCc1ccccc1)C(=O)N[C@@H](CC(C)C)C(=O)N[C@@H](Cc1ccccc1)C(=O)N[C@@H](CC(C)C)C(=O)[C@@]1(C)CO1` [Compound 8]: the IC50 in assay [1] and in assay [2] was less than 100 nM throughout.

As usually defined, the IC50 is the concentration that inhibits the measured activity by half. Low values mean greater potency in that assay, high ones weaker potency in that assay.
